We go through 68 compounds from patent US10940139B2, “Compounds that interact with the Ras superfamily for the treatment of cancers, inflammatory diseases, rasopathies, and fibrotic disease” (Shy Therapeutics LLC, priority 2017, dated 2021).

The test system of one test is MAPK phosphorylation in PANC-1 pancreatic cancer cell line. As to the kind of experiment: MAPK cell-based phosphorylation assay (cell-direct ELISA, EGF stimulation). To be noted: Homo sapiens. On the procedure:
Cell lines: Tumor-derived pancreatic cancer cell lines PANC-1 were purchased from ATCC and were maintained according to ATCC recommendation.
Method: Cells were plated at 7500 cells/well density in 96-wells plate, starved over night, and the small molecules to be tested were added to the cells in the final concentration of 30 μM with 0.3% DMSO for 6 hours incubation at 37° C. For IC50 value determination, serial dilutions of compounds were added to cells under the same conditions. Next, cells were stimulated with 1.5 ng/ml EGF for 15 min. followed by cell fixation with 4% Formaldehyde in PBS at RT for 20 min. Phosphorylation level of MAPK was determined by Cell-direct ELISA.
Cell-direct ELISA: For each well, cells were permeabilized with PBS-Triton 0.1%, quenched with H2O2 0.6% in PBS-Triton 0.1%, and probed with anti-phospho-MAPK antibodies (R&D Systems) followed by HRP-conjugated secondary antibody (Jackson Immunoresearch, West Grove, Pa.). Next, a solution 50 μM of the fluorescent substrate AmpliFlu Red (Sigma) was added and incubated at RT for 20 min. At the end of the incubation time, fluorescence was measured at 595 nm on a microplate reader (AF2200; Eppendorf, Inc., Hamburg, Germany).
Background: An ELISA detects its analyte on a solid surface through an enzyme-linked reagent.
In general, IC50 refers to the midpoint of a concentration-inhibition curve. A lower IC50 goes with greater potency. Regarding `COc1cccc(N2CCN(C(=O)c3csc4c(O)nc(-c5ccccn5)nc34)CC2)c1` [drawing 1118], the IC50 was above 30 µM.
Still for that read-out and setting: in the case of `Oc1nc(-c2ccccn2)nc2c(-c3ccsc3)csc12` [drawing 1214] it was below 2 µM; in that of `Oc1nc(-c2ccccn2)nc2c(-c3cc(Cl)cc(Cl)c3)csc12` [drawing 1192], above 30 µM.
Still for that read-out and setting: in the case of `COc1ccnc(-c2nc(O)c3ccsc3n2)c1` [drawing 1114] it was above 30 µM; in that of `Oc1nc(-c2ccccn2)nc2c(-c3ccccc3)csc12` [drawing 1074], below 2 µM.

Staying with this test, now noted: Homo sapiens, * = tested at 10 μM.
Usually inhibition stands for the percentage by which the read-out fell short of the control. A low value points to a weak effect. Turning to `CCN(CC)CCOc1nc(-c2nccn2C)nc2sc(-c3ccccc3)c(-c3ccccc3)c12` [drawing 1333], the inhibition at 10 µM lay in the range of 76 to 100%.
`Cc1ccc(-c2cc3nc(-c4ccccn4)nc(O)c3s2)cc1` [drawing 1315] registered an inhibition at 10 µM of 76 to 100%.
Compound `O=C(c1csc2c(O)nc(-c3ccccn3)nc12)N1CCNC(c2cn[nH]c2)C1` (stereo not shown) [drawing 1200] registered an inhibition at 10 µM of 25 to 50%.
Still for that read-out and setting: in the case of `Oc1nc(-c2ccccn2)nc2c(-c3ccccc3C(F)F)csc12` [drawing 1221] it was 76 to 100%; in that of `COc1cnc(-c2nccn2C)nc1O` [drawing 1273], 25 to 50%; in that of `COc1cnc(-c2cn(C)cn2)nc1O` [drawing 1257], 51 to 75%.
The same measure, in the same setting: in the case of `OCC1(c2ccc(-c3csc4c(O)nc(-c5ccccn5)nc34)cc2)CC1` [drawing 1223] it was 51 to 75%; in that of `COc1c(O)nc(-c2ccccn2)nc1Oc1cccc(C(F)(F)F)c1` [drawing 1317], 1 to 25%.
`COC1CCN(c2nc(-c3nccn3C)nc3sc(-c4ccccc4)c(-c4ccccc4)c23)C1` (stereo not shown) [drawing 1331] showed an inhibition at 10 µM of 76 to 100%.
Compound `COc1ccc(-c2c(-c3ccccc3)sc3c(O)nc(-c4nccn4C)nc23)cn1` [drawing 1353] yielded an inhibition at 10 µM of 51 to 75%.
Consider `Nc1nc(O)c2sc(-c3cccc(C(=O)NCc4ncc[nH]4)c3)cc2n1` [drawing 1305], for which the inhibition at 10 µM turned out to be 0%.
The same measure, in the same setting: in the case of `Oc1nc(-c2ccccn2)nc2c(-c3ccsc3)csc12` [drawing 1214] it was 76 to 100%; in that of `COc1cnc(CNC(=O)c2cc3nc(-c4ccccn4)nc(O)c3s2)[nH]c1=O` [drawing 1281], 51 to 75%; in that of `Nc1nc(-c2ccccn2)nc2ccsc12` [drawing 1187], 1 to 25%.
Still for that read-out and setting: in the case of `Cc1ccc(OC2CCCC2)c(-c2csc3c(O)nc(-c4ccccn4)nc23)c1` [drawing 1189] it was 25 to 50%; in that of `Cc1sc2c(O)nc(-c3ccccn3)nc2c1C(=O)N1CCN(Cc2cccc(O)c2)CC1` [drawing 1271], 25 to 50%.
The same measure, in the same setting: in the case of `O=C(NCCc1cnc(O)nc1)c1csc2nc(-c3ccccn3)nc(N3CCS(=O)(=O)CC3)c12` [drawing 1196] it was 1 to 25%; in that of `COCCNc1nc(-c2nccn2C)nc2sc(C)c(-c3ccccc3)c12` [drawing 1344], 51 to 75%; in that of `CN1CCN(c2nc(-c3ccccn3)nc3scc(C(=O)NCCc4cnc(O)nc4)c23)CC1` [drawing 1236], 25 to 50%.
For `Oc1nc(-c2ccccn2)nc2c(-c3cc(Cl)cc(Cl)c3)csc12` [drawing 1192], the inhibition at 10 µM fell in the range of 1 to 25%.
On the same count and under the same terms, in the case of `Cc1sc2c(O)nc(-c3ccccn3)nc2c1Br` [drawing 1282] it was 76 to 100%; in that of `O=c1[nH]c(-c2ccccn2)nc2c([C@@H]3O[C@H](CO)[C@@H](O)[C@H]3O)csc12` [drawing 1287], 1 to 25%; in that of `Oc1nc(-c2ccccn2)nc2sc3c(c12)CCNC3` [drawing 1194], 25 to 50%.
For `Oc1nc(-c2ccccn2)nc2c(-c3ccccc3OC3CCCCC3)csc12` [drawing 1205], the inhibition at 10 µM lay within 1 to 25%.
Still for that read-out and setting: in the case of `COc1cc(-c2csc3c(O)nc(-c4ccccn4)nc23)cnc1C(F)(F)F` [drawing 1222] it was 1 to 25%.
Still for that read-out and setting: in the case of `Nc1nc(-c2ccccn2)nc2c(-c3ccccc3)csc12` [drawing 1201] it was 25 to 50%; in that of `Nc1nc(-c2ccccn2)nc2scc(Br)c12` [drawing 1231], 1 to 25%; in that of `Oc1nc(-c2ccccn2)nc2c(Br)c(-c3ccccc3)sc12` [drawing 1313], 0%.
The same measure, in the same setting: in the case of `COCCNc1nc(-c2ccccn2)nc2c1c(-c1ccccc1)nn2-c1ccccn1` [drawing 1298] it was 1 to 25%; in that of `COCCNc1nc(-c2nccn2C)nc2sc(-c3ccncc3)c(-c3ccccc3)c12` [drawing 1342], 0%; in that of `Oc1nc(-c2ccccn2)nc2c(C3CCCCC3)csc12` [drawing 1272], 25 to 50%.
In the case of `Cn1cnc(-c2nc(O)c3scc(-c4cccc(OC(F)(F)F)c4)c3n2)c1` [drawing 1366], the inhibition at 10 µM was 1 to 25%.

Still in this test, the particulars now being: Homo sapiens, at 30 μM.
Regarding `O=C(c1csc2c(O)nc(-c3ccccn3)nc12)N1CCN(c2ccc(F)cc2F)CC1` [drawing 1142], the inhibition at 30 µM fell in the range of 1 to 25%.
Still for that read-out and setting: in the case of `CC(C)c1nc(CC(=O)Nc2nnc(-c3ccccn3)[nH]2)cs1` [drawing 1003] it was 1 to 25%; in that of `CS(=O)(=O)Cc1ccc(C(=O)Nc2nc(-c3ccccn3)cs2)cc1` [drawing 1029], 1 to 25%; in that of `COCCCCNC(=O)c1csc2nc(-c3ccccn3)nc(N3CCOCC3)c12` [drawing 1156], 1 to 25%.
Same read-out and setting: in the case of `COCCN(CCOC)c1nc(-c2ccccn2)nc2scc(C(=O)NCCc3cnc(O)nc3)c12` [drawing 1171] it was 25 to 50%.
Take `O=C(Nc1nnc(-c2ccccn2)[nH]1)C1CCCN(c2ncccn2)C1` (stereo not shown) [drawing 1015]: the inhibition at 30 µM was 1 to 25%.
The same measure, in the same setting: in the case of `O=C(Cc1cccs1)Nc1nnc(-c2ccccn2)[nH]1` [drawing 1007] it was 25 to 50%.
In turn, `COc1cccc(N2CCN(C(=O)c3csc4c(O)nc(-c5ccccn5)nc34)CC2)c1` [drawing 1118] registered an inhibition at 30 µM of 76 to 100%.
Same read-out and setting: in the case of `O=C(Cc1c[nH]c2ccccc12)Nc1nnc(-c2ccccn2)[nH]1` [drawing 996] it was 51 to 75%; in that of `Cc1cccc(CN(Cc2ccccn2)Cc2nccn2C)c1` [drawing 1045], 25 to 50%; in that of `O=C(Nc1nc(-c2ccccn2)cs1)C1CC(=O)N(c2ccc3c(c2)OCCO3)C1` (stereo not shown) [drawing 1031], 25 to 50%.
The same measure, in the same setting: in the case of `O=C(Nc1nnc(-c2ccccn2)[nH]1)c1cccc(N2CCCS2(=O)=O)c1` [drawing 1021] it was 1 to 25%.
`CC(c1ccccc1)N1CCN(C(=O)c2csc3c(O)nc(-c4ccccn4)nc23)CC1` (stereo not shown) [drawing 1166] displayed an inhibition at 30 µM of 1 to 25%.
On the same count and under the same terms, in the case of `O=[N+]([O-])c1cc(C(F)(F)F)ccc1Sc1nc2c(c(C(F)(F)F)n1)CCCC2` it was 1 to 25%.
The same measure, in the same setting: in the case of `Brc1csc2nc(-c3ccccn3)nc(N3CCOCC3)c12` [drawing 1079] it was 1 to 25%.
Regarding `COC(=O)c1ccc(C(=O)NCC2(c3ccccc3OC)CCCC2)nc1` [drawing 1048], the inhibition at 30 µM lay within 1 to 25%.
`COc1cccc(CN2CCN(C(=O)c3csc4c(O)nc(-c5ccccn5)nc34)CC2)c1` [drawing 1145] returned an inhibition at 30 µM of 25 to 50%.
Same read-out and setting: in the case of `COc1ccnc(-c2nc(O)c3ccsc3n2)c1` [drawing 1114] it was 51 to 75%; in that of `N#Cc1ccccc1N1CCN(C(=O)c2csc3c(O)nc(-c4ccccn4)nc23)CC1` [drawing 1122], 1 to 25%.
`CCN(CC)C(=O)CN1CCN(c2nc(-c3ccccn3)nc3scc(-c4ccccc4)c23)CC1` [drawing 1098] came in with an inhibition at 30 µM of 25 to 50%.
On the same count and under the same terms, in the case of `O=C(Cc1cccc(F)c1)Nc1nc(-c2ccccn2)cs1` [drawing 1033] it was 1 to 25%; in that of `Cc1nnc(C(Nc2nc(-c3ccccn3)nc3scc(-c4ccccc4)c23)c2ccccc2)n1C` (stereo not shown) [drawing 1084], 51 to 75%.
As for `O=C(Nc1nnc(-c2ccccn2)[nH]1)C1CCCN(c2cnccn2)C1` (stereo not shown) [drawing 1019], the inhibition at 30 µM was 1 to 25%.
On the same count and under the same terms, in the case of `N#Cc1ccc(CC(=O)Nc2nc(-c3ccccn3)nc3sccc23)cc1` [drawing 1176] it was 76 to 100%; in that of `Cc1sc2nc(-c3ccccn3)nc(NCCc3nccn3C)c2c1-c1ccccc1` [drawing 1085], 1 to 25%; in that of `c1ccc(-c2csc3nc(-c4ccccn4)nc(N4CCN(Cc5cccnc5)CC4)c23)cc1` [drawing 1087], 1 to 25%.
`Oc1nc(-c2ccccn2)nc2c1ncn2-c1ccccn1` [drawing 1077] yielded an inhibition at 30 µM of 1 to 25%.
As for `COc1cc(N2CCN(C(=O)c3csc4c(O)nc(-c5ccccn5)nc34)CC2)ccc1O` [drawing 1179], the inhibition at 30 µM fell in the range of 25 to 50%.
Same read-out and setting: in the case of `COc1ccc(CN2CCN(C(=O)c3csc4c(O)nc(-c5ccccn5)nc34)CC2)cc1` [drawing 1124] it was 1 to 25%; in that of `O=c1nc(-c2ccccn2)[nH]c2scc(-c3ccccc3Cl)c12` [drawing 1036], 25 to 50%.
Still for that read-out and setting: in the case of `COCCCC1CCN(C(=O)c2csc3c(O)nc(-c4ccccn4)nc23)CC1` [drawing 1066] it was 1 to 25%.
Still for that read-out and setting: in the case of `O=C(NCCc1cccnc1)c1csc2c(O)nc(-c3ccccn3)nc12` [drawing 1071] it was 1 to 25%; in that of `Oc1nc(-c2ccccn2)nc2c(-c3ccccc3)csc12` [drawing 1074], 76 to 100%.
For `Nc1nc(O)c2scc(C(=O)N3CCc4ccccc4CC3)c2n1` [drawing 1063], the inhibition at 30 µM fell in the range of 1 to 25%.
In turn, `c1ccc(-c2csc3nc(-c4ccccn4)nc(N4CCN(CC5CCCO5)CC4)c23)cc1` (stereo not shown) [drawing 1088] gave an inhibition at 30 µM of 1 to 25%.
Turning to `COc1ccc(N2CCN(C(=O)c3csc4c(O)nc(-c5ccccn5)nc34)CC2)cc1O` [drawing 1164], the inhibition at 30 µM lay in the range of 1 to 25%.
